Measured values taken from patent US20120289492A1, “METHODS OF TREATING MITOCHONDRIAL DISORDERS USING METALLOPORPHYRINS” (priority 2009, published 2012).

Assay: Peroxynitrite-induced oxidation of dihydrorhodamine-123
Assay type: biochemical
Conditions: peroxynitrite 1 μM, dihydrorhodamine 123 10 μM, pH 7.4
From the text: Mitochondrial oxidative stress production To determine if increased oxidative stress occurred in mitochondrial fractions, the levels of CoASH, CoASSG, aconitase, ascorbate, cysteine, methionine and 3-NT were examined in the forebrain of Sod2 −/− mice at 15-16 days old. GSH is the most abundant thiol containing antioxidant in tissues and brain (Meister & Anderson (1983) Annu Rev Biochem 52, 711-60) and plays an important role in preventing oxidative damage. […] To determine if direct scavenging of ONOO− could result in decreased 3NT levels by AEOL11207, we measured its ability to inhibit ONOO-induced oxidation of dihydrorhodamine-123.
Measurement of peroxynitrite-induced oxidation of dihydrorhodamine-123 inhibition by metalloporphyrins The peroxynitrite-dependent oxidation of dihydrorhodamine-123 to rhodamine-123 is measured based on previously described methods (Kooy et al. (1994) Free Radic Biol Med 16, 149-56; Szabo, et al. (1996) FEBS Lett 381, 82-6). […] After 10 min incubation at room temperature, the fluorescence of rhodamine 123 was measured using a fluorimeter (Perkin-Elmer, Norwalk, Conn.) at an excitation wavelength of 500 nm, emission wavelength of 536 nm

SMILES: COC(=O)c1c2nc(c(C(F)(F)F)c3ccc([n-]3)c(C(=O)OC)c3nc(c(C(F)(F)F)c4ccc1[n-]4)C=C3)C=C2.[Cl-].[Mn+3] [AEOL11207]
- IC50: 3.7 µM
